Experimental data published in article PMC4853610, “Systemic Dosing of Thymosin Beta 4 before and after Ischemia Does Not Attenuate Global Myocardial Ischemia-Reperfusion Injury in Pigs” (Frontiers in Pharmacology, 2016).

Columns and labels:
small mesentery arteries = assay: Artery wire myography, small mesentery arteries; parameters: species or system pig
Source text: (§1) Eighteen representative segments of small mesentery arteries and coronary arteries (250–350 μm in diameter) from 4 blood-donor pigs were studied by wire myography for contractile responses to TB4 in vitro. Samples were excised rapidly and placed in ice-cold oxygenated Krebs solution. The composition of the Krebs solution was as follows (in mM): 119 NaCl, 4.7 KCl, 25 NaHCO3, 1.2 NaH2PO4, 2.5 CaCl2, 1.2 MgSO4, and 5.5 glucose. Arterial rings (2 mm in length) were mounted using 40 μm wires in a microvessel myograph (Danish Myograph Technologies, Aarhus, Denmark) for isometric tension recordings. After mounting, vessels were equilibrated, normalized and contracted repeatedly with 62 mM potassium chloride until maximal and reproducible contractions were obtained. To examine the contracting effects of TB4, dose-response curves to TB4 (10-8-10-2 M) were constructed and compared to KCl-induced contraction. Relaxation was studied in thromboxane (TXA2) precontracted arterial rings. The precontraction was adjusted to 20–40% of the reference contraction to 62 mM KCl, which after cumulative concentrations of TB4 was added to the organ bath. To evaluate the role of NO on the effects of TB4 induced vasodilation, experiments were repeated in arteries incubated with L-NNA, a NO synthase inhibitor (100 μM, 30 min). Data were collected and analyzed using Powerlab and Chart5 softwares (ADI Instruments, Colorado Springs, CO, USA).

[1] = tested on: global myocardial ischemia-reperfusion injury; assay: Cardiac 15O-water PET, myocardial blood flow; format: in vivo; details: pig; 25 h post-reperfusion; n = 4; mean ± SD; p = 0.86 vs control
Procedure: (§2) The lung was displaced and the pericardium opened. […] Blood lactate levels were monitored to ensure adequate perfusion. […] After weaning, the animals were decannulated. […] The thoracotomy wound was closed in three layers.
The pigs underwent cardiac PET scans 25–26 h post-reperfusion to determine MBF during rest and adenosine stress. PET studies were performed with ECAT EXACT HR+ scanner (Siemens-CTI, Knoxville, TN, USA). Myocardial perfusion was evaluated by PET with ^15O-radiolabeled water (808 ± 129 MBq) both at rest and during intravenous adenosine stress (200 μg/kg/min). The acquisition frames were as follows: 14 × 5 s, 3 × 10 s, 3 × 20 s, and 4 × 30 s (total duration 4 min 40 s). The acquired PET data were reconstructed in 2D mode with an iterative reconstruction algorithm OSEM using six iteration and 16 subsets in the reconstruction. The transaxial field of view (35 cm) was reconstructed in a 128 × 128 matrix, yielding a pixel size of 2.57 mm × 2.57 mm. The measurements were corrected for scatter, random counts, and dead time. The device produces 63 axial planes with a slice thickness of 2.43 mm. Global myocardial perfusion (ml/g/min) was measured using Carimas 2 software (Turku PET Centre, Turku, Finland^1).

citrated whole blood = assay: Rotem thromboelastometry in vitro (EXTEM, INTEM, FIBTEM); parameters: species or system pig; details: for maximum clot firmness, FIBTEM: 1 h room temperature, platelets inhibited, three animals, mean ± SD
Procedure: Rotem®thromboelastometry (Tem Innovations GmbH, Basel, Switzerland) analysis was performed in vitro on blood samples from three blood-donor animals. TB4 was added to citrated whole blood to achieve two different concentrations (0.1 mM and 1 mM) and incubated at room temperature for 1 h. Untreated blood samples served as controls. The samples were analyzed and three parameters were drawn from the results at 60 min: Maximum clot firmness (stability of the blood clot), clotting time (time to clot formation), and maximum lysis of the blood clot. Assays used were EXTEM, INTEM, and FIBTEM. EXTEM measures the activity of the extrinsic pathway with tissue factor activation and INTEM of the intrinsic pathway with contact activation. FIBTEM is used for the assessment of fibrinogen status by complete platelet inhibition.

[2] = Serum TB4 concentration by EIA after intravenous infusion; details: pig, 6 mg/kg
Procedure: The pigs were pre-anesthetized with an intramuscular injection of 100 mg xylazin (Rompun vet, Bayer Animal Health GmbH, Leverkusen, Germany) and 25 mg midazolam (Midazolam Hameln, Hameln pharmaceuticals GmbH, Hameln, Germany). A peripheral ear vein was cannulated and the animals were medicated with 20 mg boluses of propofol (PropofolLipuro, B. Braun Melsungen AG, Melsungen, Germany) and 150 μg phentanyl (Fentanyl-Hameln, Hameln pharmaceuticals GmbH, Hameln, Germany) and were then intubated and connected to a respirator (Dräger Oxylog 3000, Drägerwerk AG, Lübeck, Germany). […] Anesthesia was maintained with a continuous infusion of propofol 15–30 mg/kg/h, phentanyl 1.5 μg/kg/h and midazolam 100 μg/kg/h. […] TB4 (supplied by RegeneRx Biopharmaceuticals Inc, Rockville, MD, USA) was suspended in sterile water to a concentration of 4 mg/ml (0.82 mM) and administered 6 mg/kg through a 15 min intravenous infusion 30 min before the start of the operation and 6 h later.
Serial serum samples were collected from two animals in both groups for pharmacokinetic studies of TB4 by EIA. The serum was prepared and analyzed as parallel samples according to the manufacturers’ manual (Thymosin β4 EIA Kit, Immundiagnostik AG, Bensheim, Germany). A coefficient of variation (calculated as: sample SD/sample mean) of less than 50% between parallel samples was accepted for final analysis.

[3] = tested on: global myocardial ischemia-reperfusion injury; details: pig, TB4 6 mg/kg i.v. twice, n = 4, mean ± SD
Procedure: The pigs were pre-anesthetized with an intramuscular injection of 100 mg xylazin (Rompun vet, Bayer Animal Health GmbH, Leverkusen, Germany) and 25 mg midazolam (Midazolam Hameln, Hameln pharmaceuticals GmbH, Hameln, Germany). A peripheral ear vein was cannulated and the animals were medicated with 20 mg boluses of propofol (PropofolLipuro, B. Braun Melsungen AG, Melsungen, Germany) and 150 μg phentanyl (Fentanyl-Hameln, Hameln pharmaceuticals GmbH, Hameln, Germany) and were then intubated and connected to a respirator (Dräger Oxylog 3000, Drägerwerk AG, Lübeck, Germany). The respiratory rate was set to 18–22 times/min with a tidal volume of 8–10 ml/kg using 40% oxygen. Blood gases were monitored to ensure adequate ventilation (i-STAT, Abbott Laboratories, Abbott Park, IL, USA). Anesthesia was maintained with a continuous infusion of propofol 15–30 mg/kg/h, phentanyl 1.5 μg/kg/h and midazolam 100 μg/kg/h. Preoperatively and every 8 h thereafter the animals received antibiotic prophylaxis (Cefuroxime 750 mg, Orion Pharma, Espoo, Finland). Before the heart was cannulated 10000 IU of heparin (Heparin, LEO Pharma, Ballerup, Denmark) was given as a bolus and the dose was repeated every 30 min during extracorporeal circulation. […]
The pigs were placed in a left lateral decubitus position and the chest was shaved and disinfected. […] Blood lactate levels were monitored to ensure adequate perfusion. […]

[4] = tested on: global myocardial ischemia-reperfusion injury; assay: Cardiomyocyte apoptosis by TUNEL after CPB and aortic cross-clamping; format: in vivo; details: pig; TB4 6 mg/kg i.v. twice; 30 h post-reperfusion; mean ± SD; p = 0.20 vs other group
Procedure: as §2
Transmural tissue samples from the left and right ventricles were collected and fixed in formalin. Hematoxylin and eosin staining was performed for general histological analysis. Cardiomyocyte apoptosis was determined by terminal transferase nick end-labeling assay (TUNEL) as previously described ([Gavrieli et al., 1992]; [Saraste et al., 1997]). Positive apoptotic nuclei were counted over an ocular grid and presented as a percentage of total cardiomyocyte number in 10 randomly selected microscopic visual high power (×40) fields by an investigator blinded to group assignments.

[5] = tested on: global myocardial ischemia-reperfusion injury; format: in vivo, pig
Procedure: The lung was displaced and the pericardium opened. […] Blood lactate levels were monitored to ensure adequate perfusion. […] After weaning, the animals were decannulated. […] The thoracotomy wound was closed in three layers. […] MRI study was performed at 1.5 T system (Philips GyroscanIntera Nova Dual MR, Philips Medical Systems, Best, The Netherlands) with a phased-array torso coil and a vector cardiographic method for ECG-gating. All acquisitions were obtained during short breath hold periods. Each MRI study consisted of cine imaging of both ventricles for volumetrics and wall motion at rest. Late enhancement (LE) imaging was applied for scar assessment. […] A phase-sensitive inversion recovery T1-TFE pulse sequence was applied for LE imaging 10 min after injecting gadoterate meglumine (Dotarem 279.3 mg/mL, Guerbet, Roissy CdG, France) with a dose 0.3 mmol/kg. The following imaging parameters were used: prospective gating, TR/TE 4.0/1.2 ms, flip angle 15°, acquisition matrix 168 × 256, reconstruction matrix 256 × 256, FOV 320-360 mm, rFOV 100%, 8-15 slices/breath hold, slice thickness 6 mm, and gap 0 mm. TI was optimized individually using a TI-scout sequence. The whole LV was covered by LE images at SA orientation.

[6] = Completion of the 30 h follow-up period; format: in vivo, pig; details: TB4 treatment group n = 6; one died after weaning from CPB (bradycardia), one 20 h after reperfusion (circulatory failure)
Source text: Ten landrace pigs weighing 29–43 kg were operated on and divided into a TB4 treatment group (n = 6) and a control group (n = 4). All animal experiments were approved by the Laboratory Animal Care & Use Committee of the State Provincial Office of Southern Finland.
as §2

[7] = statement in discussion; ref Cierniewski et al., 2012; cited from earlier work
Source text: Thymosin beta 4 is normally found in the cytosol and also in the nucleus of cells but lacks a signal sequence for exocytosis. It is unclear whether the high concentrations found in extracellular fluids, is due to active secretion of the peptide or secondary to degranulation of inflammatory cells or cell membrane rupture ([Watts et al., 1990]; [Huff et al., 2001]). TB4 is water soluble and rapidly internalized by endothelial cells in vitro where it binds to actin and participates in the dynamics of the cytoskeleton ([Cierniewski et al., 2012]). At very high concentrations there is also some bin ...

[8] = after intraperitoneal administration; ref Mora et al., 1997; cited from earlier work
Procedure: The preferred dosing range of TB4 seems to be 2–12 mg/kg both when using single and repeated strategies. […] We wanted to condition the heart before the operation and also affect the immediate post-operative reperfusion period and gave the animals two doses of TB4. Under physiological conditions, concentrations of the peptide in plasma and se ...

coronary arteries = assay: Artery wire myography, coronary arteries; parameters: species or system pig
Source text: as §1

[9] = TB4 0.1 mM and 1 mM in whole blood

Which “vasodilatation in mesenteric arteries” value (small mesentery arteries; TXA2 precontracted arterial rings, cumulative TB4 concentrations) does the source give for `CC[C@H](C)[C@H](NC(=O)[C@H](CCC(=O)O)NC(=O)[C@H](C)NC(=O)[C@H](CCSC)NC(=O)[C@H](CC(=O)O)NC(=O)[C@@H]1CCCN1C(=O)[C@H](CCCCN)NC(=O)[C@H](CC(=O)O)NC(=O)[C@H](CO)NC(C)=O)C(=O)N[C@@H](CCC(=O)O)C(=O)N[C@@H](CCCCN)C(=O)N[C@@H](Cc1ccccc1)C(=O)N[C@@H](CC(=O)O)C(=O)N[C@@H](CCCCN)C(=O)N[C@@H](CO)C(=O)N[C@@H](CCCCN)C(=O)N[C@@H](CC(C)C)C(=O)N[C@@H](CCCCN)C(=O)N[C@@H](CCCCN)C(=O)N[C@H](C(=O)N[C@@H](CCC(=O)O)C(=O)N[C@H](C(=O)N[C@@H](CCC(N)=O)C(=O)N[C@@H](CCC(=O)O)C(=O)N[C@@H](CCCCN)C(=O)N[C@@H](CC(N)=O)C(=O)N1CCC[C@H]1C(=O)N[C@@H](CC(C)C)C(=O)N1CCC[C@H]1C(=O)N[C@@H](CO)C(=O)N[C@@H](CCCCN)C(=O)N[C@@H](CCC(=O)O)C(=O)N[C@H](C(=O)N[C@H](C(=O)N[C@@H](CCC(=O)O)C(=O)N[C@@H](CCC(N)=O)C(=O)N[C@@H](CCC(=O)O)C(=O)N[C@@H](CCCCN)C(=O)N[C@@H](CCC(N)=O)C(=O)N[C@@H](C)C(=O)NCC(=O)N[C@@H](CCC(=O)O)C(=O)N[C@@H](CO)C(=O)O)[C@@H](C)CC)[C@@H](C)O)[C@@H](C)O)[C@@H](C)O` [TB4, Thymosin beta 4] here?
The value was “did not, however, induce vasodilatation”.

And the “contractile response, % of maximum potassium chloride stimulation” value (small mesentery arteries; mesenteric arteries, TB4 0.1–1 mM, reference 62 mM KCl, arteries from four animals)?
The value was 15–30%.

And the “influence on vasoconstriction or vasodilation at physiological concentrations” value (small mesentery arteries; physiological concentrations of TB4, mesentery and coronary arteries)?
The value was “did not observe any influence”.

What about the “global myocardial blood flow during rest” value [1] of the same compound?
Its value is 1.92 ± 0.38 mL/g/min.

What about the blood clotting time (citrated whole blood; [9]) of the same compound?
Its blood clotting time is “did not have an effect”.

And the “maximal blood clot fibrinolysis” value (citrated whole blood; [9])?
Its value is “did not have an effect”.

What about the “maximum clot firmness, FIBTEM” value (citrated whole blood; TB4 0.1 mM in citrated whole blood) of the same compound?
The value was 37.3 ± 5.9 mm.

What about the “maximum clot firmness, FIBTEM” value (citrated whole blood; TB4 1 mM in citrated whole blood) of the same compound?
The value was 27.7 ± 4.2 mm.

What about the level at time molar at 0.25 h [2] of the same compound?
Its level at time molar at 0.25 h is 960 nM.

What about the level at time molar at 1 h [2] of the same compound?
Its level at time molar at 1 h is 1250 nM.

And the “cTnT plasma concentration 6 h post-reperfusion” value ([3]; p = 0.27)?
Its value is 437 ± 291 ng/L.

And the “cTnT plasma concentration 24 h post-reperfusion” value ([3]; p = 0.55)?
Its value is 305 ± 75 ng/L.

What about the “TUNEL-positive apoptotic cells, right ventricle” value [4] of the same compound?
Its value is 0.94 ± 0.33%.

And the “gadolinium contrast uptake on late-enhancement scans” value ([5]; 28 h post-reperfusion, any of the animals)?
The value was “No uptake of gadolinium contrast was observed”.

And the “valvular abnormalities on cardiac MRI” value ([5]; pig, in vivo)?
The value was “One animal in the TB4 group had mild tricuspid valve regurgitation”.

And the “left ventricle ejection fraction” value ([5]; pig, 28 h post-reperfusion, n = 4, mean ± SD, p = 0.45 vs control)?
The value was 61.9 ± 10.6%.

What about the LVESV ([5]; pig, 28 h post-reperfusion, n = 4, mean ± SD, p = 0.49) of the same compound?
Its LVESV is 23.3 ± 8.7 mL.

What about the LVEDV ([5]; pig, 28 h post-reperfusion, n = 4, mean ± SD, p = 0.58) of the same compound?
The LVEDV was 60.1 ± 6.8 mL.

And the “animals not completing the follow-up period” value [6]?
Its value is “two animals did not complete the follow-up period”.

And the solubility in water [7]?
The solubility in water was “water soluble”.

And the “time of maximal tissue concentration in heart” value [8]?
The value was 2 h.

And the “relaxation of coronary arteries” value (coronary arteries; TXA2 precontracted porcine coronary rings, TB4 alone)?
The value was “modest endothelium-dependent relaxation”.

And the “relaxation of coronary arteries with nitric oxide synthase inhibitor” value (coronary arteries; arteries incubated with L-NNA 100 μM, 30 min)?
Its value is “abolished”.

And the “vasoconstriction in coronary arteries” value (coronary arteries; dose-response to TB4 compared to KCl-induced contraction)?
Its value is “nor did it induce vasoconstriction”.
